# According to PubChem BioAssay AID1249 (Columbia University Molecular Screening Center, 2008):
# The source made the active and inactive calls. How the calls were made is not given here.
# Experiment: cellular cytoskeleton assembly phenotype modulators – imaging, high-content imaging, retest and dose response, confirmation (AID 1249);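 further: compound exposure lasted 24 h before fixation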;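 on inhibition: plate controls were untreated cells for no effect and reference compound treated cells for full effect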
# Conditions: cell-based imaging, cytoskeleton assembly phenotype, high content; at 2 µM; stronger effect = higher value
row,Structure (SMILES),inhibition
1,O=S(=O)(Cc1ccccc1Cl)N1CCN(Cc2ccc3c(c2)OCO3)CC1,41.5% (inactive)
2,Cc1ccc(-n2c([O-])nc(-[n+]3ccccc3)c2C=O)cc1,-7.2% (inactive)
3,Cc1ccc(CSc2nc3ccccc3cc2C=O)cc1,-4% (inactive)
4,COC(=O)c1ccc(-n2nnnc2SCC(=O)N2CCCCC2)cc1,3.1% (inactive)
5,Cc1nc(NC(C)C)c2oc3ccccc3c2n1,4.2% (inactive)
6,CCCCC(=O)NC(=S)Nc1ccccc1C(=O)Nc1ccccc1,3.2% (inactive)
7,COc1ccc(OC)c(C2CC(=O)c3c([nH]c(C(=O)OC(C)C)c3C)C2)c1 (stereo not given),8.4% (inactive)
8,COc1ccc(-c2cc3ccc(OCc4nn[nH]n4)cc3oc2=O)cc1OC,2.8% (inactive)
9,CCOc1ccc2nc(C)cc(Nc3ccc4c(c3)OCCO4)c2c1,7.5% (inactive)
10,Nn1c(SCC(=O)Nc2ccc3c(c2)OCCO3)nnc1C(F)(F)F,-22.1% (inactive)
11,CCc1cccc(CC)c1N(COC)C(=O)Cn1ccccc1=N,-4.4% (inactive)
12,C=CCn1c(COc2ccc(Cl)cc2)nnc1SCC(=O)N/N=C/c1cccc(O)c1,-5.9% (inactive)
13,CCOC(=O)C1=C(SCC)c2cc3c(n2C1=O)CCCC3,8.4% (inactive)
14,CC1CCN(C(=O)C2c3ccccc3C(=O)N3CCc4ccccc4C23)CC1 (stereo not given),-3.8% (inactive)
15,Oc1ccc(Nc2nc(-c3ccc4ccccc4c3)cs2)cc1,-9.7% (inactive)
16,Cn1c(SCc2nc(-c3ccc(Cl)cc3)no2)nnc1-c1cccs1,16.1% (inactive)
17,CC(C)(C)NC(=O)CSc1nsc(SCC(=O)NC(C)(C)C)c1C#N,-0.7% (inactive)
18,O=C(Nc1ccccc1)c1nnsc1S(=O)c1ccc(Cl)cc1 (stereo not given),-0.9% (inactive)
19,O=C(c1ccc2c(c1)ncn2C1CCCCC1)N1CCC2(CC1)OCCO2,3% (inactive)
20,COc1cc2c(O)c3c(c(-c4ccc5c(c4)OCO5)c2cc1OC)C(=O)OC3,1.5% (inactive)
21,CCOC(=O)c1cnc(-n2nc(C)cc2C)nc1N1CCOCC1,8.4% (inactive)
22,Cc1ccc(O)c(NC(=O)CCC2CCCCC2)c1,-15.6% (inactive)
23,Cc1oc(-c2ccc(Cl)cc2)cc1-c1nn2c(-c3ccoc3C)nnc2s1,0.3% (inactive)
24,CN(Cc1ccccc1)S(=O)(=O)c1ccc(NC(=S)NC(=O)C2CCCC2)cc1,-1.4% (inactive)
25,Cc1cccc(NC(=O)CN2NS(=O)(=O)c3ccccc3C2=O)c1,-4.6% (inactive)

row,Structure (SMILES),inhibition
1,O=[N+]([O-])c1ccc(/C=N/n2c(COc3ccccc3)n[nH]c2=S)cc1,-4.5% (inactive)
2,Oc1ccc(N2CCN(c3ncnc4sc5c(c34)CCC5)CC2)cc1,-5.1% (inactive)
3,COc1ccc(C)cc1S(=O)(=O)Nc1cccc(SC)c1,3.7% (inactive)
4,O=C1CC(N2CCN(Cc3ccc4c(c3)OCO4)CC2)C(=O)N1c1ccccc1 (stereo not given),-6.6% (inactive)
5,COc1ccccc1N(C)S(=O)(=O)c1ccc(C(=O)NCC(C)C)cc1,2.3% (inactive)
6,CCn1c(=O)cc(OCC(=O)NCc2ccco2)c2ccccc21,-5% (inactive)
7,COc1ccc(S(=O)(=O)n2ccc(-c3ccc(OCCN(C)c4ccccn4)cc3)n2)cc1,11.9% (inactive)
8,CCCc1nc(SCC(=O)Nc2nnc(CC)s2)c2c(C)c(C)sc2n1,8.7% (inactive)
9,Cc1ccn2c(NC(=O)c3ccco3)c(-c3ccccc3)nc2c1,12.5% (inactive)
10,COc1ccc(Nc2nc(N3CCCC3)nc3ccccc23)c(OC)c1,-12.3% (inactive)
11,CN=c1sc2ccccc2n1CC(O)COc1ccccc1 (stereo not given),-6.5% (inactive)
12,Clc1ccc(-n2ncc3c(NCc4ccc5c(c4)OCO5)ncnc32)cc1,2.6% (inactive)
13,CCN(CC)c1ccc(C2=NNC(=O)CC2C)cc1[N+](=O)[O-] (stereo not given),-7.3% (inactive)
14,COc1ccc(NC(=O)/C(Cl)=C(/Cl)S(=O)(=O)Cc2ccc(C)cc2)cn1,5.2% (inactive)
15,Cn1c(NCc2c[nH]c3ccccc23)nc2ccccc21,-13.6% (inactive)
16,CCOC(=O)C(C)Oc1cccc2c(=O)n(CC(=O)NCc3ccc4c(c3)OCO4)ccc12 (stereo not given),1.3% (inactive)
17,C=CCOC(=O)C1=C(C)OC(N)=C(C#N)C12C(=O)N(CN1CCOCC1)c1ccccc12 (stereo not given),-12.8% (inactive)
18,CCOC1=NC(C(=O)O)c2ccccc2/C(=C(/C)Cl)N1 (stereo not given),-4.3% (inactive)
19,O=C(Nc1ccccc1)/C(=C\c1ccc2c(c1)OCO2)NC(=O)c1ccco1,-0.8% (inactive)
20,Cc1ccccc1-c1nc(CN2CCC(C(=O)NCCCN3CC(C)CC(C)C3)CC2)c(C)o1 (stereo not given),0.8% (inactive)
21,COc1ccc(CC(=O)OCc2cc3ccc(C)cc3[nH]c2=O)cc1,5.4% (inactive)
22,Cc1cccc(N(CC(=O)N/N=C/c2ccc(OCC(=O)NCc3ccco3)cc2)S(C)(=O)=O)c1C,-6.2% (inactive)
23,c1ccc(-c2nnc(CSc3nncs3)o2)cc1,-7.1% (inactive)
24,CN(C)c1cccc(C(=O)Nc2ccc(N3CCOCC3)cc2)c1,-5.4% (inactive)
25,Cc1ccccc1NC1=C/C(=N\S(=O)(=O)c2cccs2)c2ccccc2C1=O,-3.8% (inactive)

row,Structure (SMILES),inhibition
1,CCOc1ccc2[nH]c(=O)c(CN(Cc3ccccc3)C(=O)N3CCCC3)cc2c1,12.4% (inactive)
2,CCOC(=O)c1ccc(CNC(=O)CCC(=O)O)cc1,-7% (inactive)
3,COc1cc(NC(=O)CN2C(=O)NC(C)(CC(C)C)C2=O)cc(OC)c1 (stereo not given),1.2% (inactive)
4,O=[N+]([O-])c1ccc(Sc2nc3ccccc3o2)c([N+](=O)[O-])c1,4.3% (inactive)
5,COC(=O)CCSc1nccn1Cc1ccccc1,-9.8% (inactive)
6,Cc1c(CCO)c(=O)n(-c2ccccc2)n1S(=O)(=O)c1ccc(Cl)cc1,-11% (inactive)
7,CCOc1cc(C(=O)Nc2cccc3ncccc23)cc(OCC)c1OCC,-20.6% (inactive)
8,O=[N+]([O-])c1cnccc1Nc1ccc(F)cc1,4.7% (inactive)
9,O=c1ccc(Oc2nc(N3CCOCC3)nc(N3CCOCC3)n2)nn1-c1ccccc1,9.9% (inactive)
10,Cc1c(Cl)cccc1-n1ccnc1SCC(=O)O,2.2% (inactive)
11,O=C(OCn1ncc(Br)c(Br)c1=O)c1ccc(F)cc1,10.9% (inactive)
12,CCCC(C(=O)NC1CCCC1)N(CCCN1CCOCC1)C(=O)c1snc(C(N)=O)c1N (stereo not given),-2.3% (inactive)
13,CCCOC(=O)C1C2C=C[C@]3(CN(CCc4ccccc4)C(=O)[C@H]13)O2 (stereo not given in full),-9.4% (inactive)
14,Cc1ccc(C(=O)CSc2nnc(COc3ccc(C#N)cc3)n2-c2ccccc2)cc1,-3% (inactive)
15,Cn1nc(C(=O)NCC2CCCO2)c2ccccc2c1=O (stereo not given),0% (inactive)
16,CC(C(=O)Nc1ccc(Br)cc1C(=O)c1ccccc1)N1CCOCC1 (stereo not given),6% (inactive)
17,CCCOc1ccc(/C(O)=C2/C(=O)C(=O)N(CCOC)C2c2cccnc2)cc1 (stereo not given),-4.5% (inactive)
18,Nc1cc(=O)nc(SCc2ccccc2)n1Cc1ccco1,3.5% (inactive)
19,Cc1cc(N2CCOCC2)c2c(N)c(C)cc(C)c2n1,-8.7% (inactive)
20,OCCN=C1CCCc2c1[nH]c1ccc(Br)cc21,-20.7% (inactive)
21,CCOc1ccc(C=O)cc1CN1CCCCC1,-10% (inactive)
22,CC(=O)Nc1nc2n(n1)C(c1ccc(F)cc1)C=C(c1ccccc1)N2 (stereo not given),13.3% (inactive)
23,CNC(=O)CN(c1ccc(OC)cc1)S(=O)(=O)c1ccc(F)cc1,-9% (inactive)
24,CCOc1ccccc1N1CCN(C(=O)c2cccc(-c3ccc(O)cc3)c2)CC1,6.2% (inactive)
25,O=C(COc1ncnc2sccc12)Nc1ccc2c(c1)OCCO2,1.1% (inactive)

row,Structure (SMILES),inhibition
1,O=C(CCSc1nnc2scc(-c3ccccc3)n12)Nc1nc(-c2ccccc2)ns1,-3.3% (inactive)
2,C/C(Cl)=C\Cn1c(NCCCn2ccnc2)nc2c1c(=O)n(C)c(=O)n2C,-1.5% (inactive)
3,COc1ccc(N2CCN(C(=O)CSc3nnc4c(C)cc5cc(C)ccc5n34)CC2)cc1,3.6% (inactive)
4,COC(=O)c1ccc(CSc2nnc(-c3ccncc3)n2Cc2ccccc2)o1,1.6% (inactive)
5,COC(=O)c1ccccc1NC(NC(=O)c1ccco1)C(=O)c1ccc(C)cc1 (stereo not given),2.9% (inactive)
6,CC(=O)Cn1c(N2CCC(Cc3ccccc3)CC2)nc2c1c(=O)[nH]c(=O)n2C,-5.3% (inactive)
7,O=c1c(-c2ccc(Br)cc2)coc2c(CN3CCOCC3)c(O)ccc12,3.1% (inactive)
8,CC(Sc1nc(N)cc(=O)[nH]1)C(=O)NC1CCCCC1 (stereo not given),9% (inactive)
9,CCn1c(SCC(=O)NC(C)c2ccccc2)nc2ccccc21 (stereo not given),0.7% (inactive)
10,CCc1cccc(CC)c1NC(=O)C1SC(=Nc2ccccc2C)C(c2nc3ccccc3s2)=C1N (stereo not given),5% (inactive)
11,COc1cccc(OC)c1NC(=O)CN1CCC(NC(=O)c2cccc(F)c2)CC1,0.4% (inactive)
12,Nc1ccc2c3c(cccc13)CC2,-5.4% (inactive)
13,CN(C)c1nc(N(C)C)nc(N(C#N)CCOc2ccccc2)n1,-6.3% (inactive)
14,COc1ccc(CSc2nc3ccccc3[nH]2)cc1,9.9% (inactive)
15,COc1ccc(N2C(=O)CC(NC3CCCCNC3=O)C2=O)cc1 (stereo not given),-8.6% (inactive)
16,CCN1CCN(C(=O)CN(CCc2ccccc2)S(C)(=O)=O)CC1,-9.3% (inactive)
17,COc1cccc(CSc2nc3ccccc3cc2C=O)c1,3.2% (inactive)
18,Nc1sccc1C(=O)c1ccc(Cl)cc1,-15.5% (inactive)
19,O=C(Oc1ccc2ccc(=O)oc2c1)N1CCOCC1,-7.8% (inactive)
20,CC(=O)c1cccc(S(=O)(=O)N2CCC(n3nnc4cc(F)ccc43)CC2)c1,6.4% (inactive)
21,C=CCNC(=O)c1c(Cl)cccc1Cl,-5.1% (inactive)
22,CC(=O)c1c(C(C)=O)c(C)n(NC(=O)c2ccccc2O)c1C,-15.8% (inactive)
23,O=C1CCSc2cccc3cccc(c23)N1,-5.2% (inactive)
24,CCCC(=O)Nc1ccc(Cl)c(NC(=O)CC)c1,-2% (inactive)

# Same assay, conditions: cell-based imaging, cytoskeleton assembly phenotype, high content; cell count; at 10 µM; stronger effect = lower value
row,Structure (SMILES),cell count
1,COCCOC(=O)c1[nH]c2c(c1C)C(=O)CC(c1ccccc1)C2 (stereo not given),56%
